How the values were obtained:
[1] = target: Muscarinic acetylcholine receptor M3 (Homo sapiens, UniProt P20309); test: Tested in vitro for the binding affinity against muscarinic receptor subtype 3 (M3)
[2] = target: T1, Muscarinic acetylcholine receptor M2 (Homo sapiens, UniProt P08172); test: Tested in vitro for the binding affinity against muscarinic receptor subtype 2 (M2)
T1 sequence (P08172 whole entry): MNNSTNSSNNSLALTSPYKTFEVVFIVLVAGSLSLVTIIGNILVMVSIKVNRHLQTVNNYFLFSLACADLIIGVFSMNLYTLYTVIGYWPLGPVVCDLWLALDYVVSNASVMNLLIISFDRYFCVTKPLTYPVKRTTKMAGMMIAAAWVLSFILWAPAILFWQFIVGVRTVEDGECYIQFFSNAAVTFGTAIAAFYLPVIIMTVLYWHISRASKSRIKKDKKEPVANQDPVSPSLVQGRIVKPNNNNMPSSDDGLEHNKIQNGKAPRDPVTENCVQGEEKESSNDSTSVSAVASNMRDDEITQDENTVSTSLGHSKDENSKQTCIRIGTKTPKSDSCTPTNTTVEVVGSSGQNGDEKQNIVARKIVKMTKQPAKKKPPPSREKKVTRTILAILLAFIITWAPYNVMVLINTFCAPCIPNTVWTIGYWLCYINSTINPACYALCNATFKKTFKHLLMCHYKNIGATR

[3] = target: T2, Muscarinic acetylcholine receptor M1 (Homo sapiens, UniProt P11229); test: Tested in vitro for the binding affinity against muscarinic receptor subtype 1 (M1)
T2 sequence (P11229 whole entry): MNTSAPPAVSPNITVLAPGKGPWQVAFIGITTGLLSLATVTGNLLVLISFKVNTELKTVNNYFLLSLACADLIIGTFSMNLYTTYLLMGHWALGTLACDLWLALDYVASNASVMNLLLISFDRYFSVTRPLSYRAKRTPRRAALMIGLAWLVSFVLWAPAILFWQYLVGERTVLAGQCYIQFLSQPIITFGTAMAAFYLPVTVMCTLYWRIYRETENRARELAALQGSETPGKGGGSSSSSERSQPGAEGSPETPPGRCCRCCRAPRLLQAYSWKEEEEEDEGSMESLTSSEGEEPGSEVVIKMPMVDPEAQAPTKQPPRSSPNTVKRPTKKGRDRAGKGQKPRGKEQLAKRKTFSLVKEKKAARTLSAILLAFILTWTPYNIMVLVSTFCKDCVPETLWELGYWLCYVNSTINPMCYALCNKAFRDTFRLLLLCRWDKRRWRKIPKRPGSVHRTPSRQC

Chain of Muscarinic acetylcholine receptor M3 (P20309 whole entry): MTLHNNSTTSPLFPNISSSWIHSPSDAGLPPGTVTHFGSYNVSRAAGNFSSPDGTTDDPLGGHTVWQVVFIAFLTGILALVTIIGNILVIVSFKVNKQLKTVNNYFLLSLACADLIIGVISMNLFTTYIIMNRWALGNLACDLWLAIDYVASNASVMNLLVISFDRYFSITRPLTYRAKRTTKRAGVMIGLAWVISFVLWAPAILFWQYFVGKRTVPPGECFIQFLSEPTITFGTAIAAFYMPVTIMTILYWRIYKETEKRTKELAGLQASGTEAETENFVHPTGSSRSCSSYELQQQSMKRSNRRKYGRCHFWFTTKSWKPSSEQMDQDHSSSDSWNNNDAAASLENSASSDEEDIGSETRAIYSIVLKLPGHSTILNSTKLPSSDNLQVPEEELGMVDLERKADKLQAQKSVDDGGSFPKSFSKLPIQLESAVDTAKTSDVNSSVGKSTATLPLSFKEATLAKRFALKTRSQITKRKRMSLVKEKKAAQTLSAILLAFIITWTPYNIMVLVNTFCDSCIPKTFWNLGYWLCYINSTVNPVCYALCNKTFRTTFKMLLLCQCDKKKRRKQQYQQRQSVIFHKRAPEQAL

| Structure (SMILES) | Ki [1] [µM] | Ki [2] [µM] | Ki [3] [µM] |
| --- | --- | --- | --- |
| CCOC(=O)N(CC)CCCCC1CCN(CC(=O)N2c3ccccc3NC(=O)c3ccccc32)CC1 | 0.0392 | 0.0371 | 0.07 |
| CCN(CCCCC1CCN(CC(=O)N2c3ccccc3NC(=O)c3ccccc32)CC1)C(=O)c1cccc(I)c1 | 0.0335 | 0.111 | 0.0671 |
| CCN(CCCCC1CCN(CC(=O)N2c3ccccc3NC(=O)c3ccccc32)CC1)C(=O)c1ccc(F)cc1 | 0.0464 | 0.032 | 0.0594 |

Second part, the compound after the results:

| Ki [1] [µM] | Ki [2] [µM] | Ki [3] [µM] | Structure (SMILES) |
| --- | --- | --- | --- |
| 0.0791 | 0.0469 | 0.129 | CCN(CCCCC1CCN(CC(=O)N2c3ccccc3C(=O)N(C(=O)c3ccc(F)cc3)c3ccccc32)CC1)C(=O)c1ccc(F)cc1 |
|  | 0.00449 | 0.00698 | CCNCCCCC1CCN(CC(=O)N2c3ccccc3NC(=O)c3ccccc32)CC1 |

— ChEMBL document CHEMBL1129888, “Synthesis and evaluation of halogenated dibenzodiazepines as muscarinic receptor ligands” (Bioorg Med Chem Lett, 1997)
